Laboratory results taken from article PMC2033785, “High-affinity binding sites for gastrin-releasing peptide on human colorectal cancer tissue but not uninvolved mucosa” (British Journal of Cancer, 1995).
No end group written: not given here.

Key:
[1] = system: bombesin binding sites on human colorectal cancer tissue (GRP-preferring subtype); test: Radioligand displacement binding on human colorectal cancer membranes; settings: for Radioligand displacement achieved over the concentration range: [125I]Tyr4-BBS; for Radioligand displacement achieved over the concentration range / Relative affinity for the binding site (GRP, BBS >> NMB): five binding site-positive tumours; for Relative affinity for the binding site (GRP, BBS >> NMB): displacement of [125I]Tyr4-bombesin
human colorectal cancers = system: human colorectal cancers; parameters: method as in Radulovic et al., 1992; settings: ref Radulovic et al., 1992; cited from earlier work
[2] = system: mouse colon cancer cell line MC26; parameters: method as in Narayan et al., 1990; settings: [3H]thymidine incorporation and MTT assays; ref Narayan et al., 1990; cited from earlier work
matched mucosa = system: matched mucosa; parameters: method as in Radulovic et al., 1992; settings: ref Radulovic et al., 1992; cited from earlier work
[3] = competitor 1 x 10-11 to 1 x 10^-6 M

Row | Substance | Radioligand displacement achieved over the concentration range [1, 3] | Relative affinity for the binding site (GRP, BBS >> NMB) [1] | Percentage of human colorectal cancers expressing bombesin binding sites (human colorectal cancers) [%] | Effect on growth [2] | Matched mucosa binding site positive (matched mucosa) | IC50 for displacement of [125I]Tyr4-BBS ([1]; membrane preparations, approximately 200 pM radioligand, competitor 1 x 10-11 to 1 x 10^-6 M, six tubes per point, mean (± s.e.m.) of the five binding site-positive cancers) | 50% displacement of specific binding: number of tumours in which achieved ([1]; of the five binding site-positive tumours, competitor 1 x 10-11 to 1 x 10^-6 M)
1 | bombesin [BBS] | Full radioligand displacement was achieved | GRP, BBS >> NMB | 40 | stimulated growth | none of the matched mucosa were binding site positive | – | –
2 | gastrin-releasing peptide (VPLPAGGGTVLTKMYPRGNHWAVGHLM; ends and bridges not checked; UniProt P07492 24-50, looked up) [GRP, mammalian bombesin-like peptide (Bachem)] | Full radioligand displacement was achieved | GRP, BBS >> NMB | – | – | – | – | –
3 | neuromedin B [NMB] | – | GRP, BBS >> NMB | – | – | – | > lOOO | only achieved in two of the five binding site-positive tumours
